ChEMBL document CHEMBL3507680, “University of Dundee, Gates Library screen for HepG2 cell viability”

Assay: Human HepG2 cell viability assay in 384 well format
Type: toxicity, cell-based
Parameters: dose 125 nL, time 70.5 hour; concentration not given beside the values
Conditions: HepG2 cells, read-out: Inhibition

| SMILES | cytotoxicity at 70.5 h [%] |
| --- | --- |
| COc1ccc(S(=O)(=O)N2CCC(Cn3ccnc3)CC2)cc1 | -6.35 |
| CS(=O)(=O)N1CCC(C(=O)N2CCC(Cn3cccn3)CC2)CC1 | -12.3 |
| O=C(Nc1ccc(CC(=O)N2CCCC2)cc1)NC1CC1 | -7.44 |
| O=C(CSC1CCCC1)N1CCN(C(=O)C2CC2c2cccs2)CC1 (centres undefined) | 33.2 |
| O=C(NCC(O)(c1ccco1)C1CC1)c1ccccc1F (centres undefined) | -14.8 |
| Cn1cccc1C(O)CNC(=O)c1cccc(Cl)c1 (centres undefined) | -9.53 |
| Cc1c(Cl)cccc1S(=O)(=O)NCC(O)c1cccn1C (centres undefined) | -3.24 |
| Cc1ccsc1C(O)CNC(=O)Cc1ccc(S(=O)(=O)C(C)C)cc1 (centres undefined) | -13.3 |
| COc1ccc(CC(C)(O)CNC(=O)Cc2cccs2)cc1 (centres undefined) | 11.8 |
| O=S(=O)(NCC1(O)CCCC1)c1ccccc1Br | -0.293 |
| CCCc1nnsc1C(=O)NCC(O)c1cccs1 (centres undefined) | -6.4 |
| Cc1ccccc1NC(=O)NCC(C)(O)c1cccs1 (centres undefined) | 4.31 |
| CCS(=O)(=O)N1CCN(CC(F)(F)F)CC1 | -5.53 |
| O=C(Cn1cnc(-c2cccs2)cc1=O)Nc1cccnc1 | -4.25 |
| CC(=O)Nc1ccc(C(=O)NCCCn2cccc2)cc1 | -14.1 |
| O=C(NCC1(CO)CC1)c1ccccc1Br | -8.75 |
| COCC(C)(O)CNC(=O)Nc1cccc(OC)c1OC (centres undefined) | -11 |
| COC1COC2(CCN(C(=O)c3cocn3)CC2)C1 (centres undefined) | -8.06 |
| O=C(C1CC1)N1CC[C@H]2C(=O)N(c3ccsc3)CCO[C@H]2C1 | -11.7 |
| O=C(Nc1ccccc1)C1=NOC2(CCCNC2)C1 (centres undefined) | 18.4 |
| CC(=O)N1CC2(CCN(C(=O)N(C)C)CC2)c2cc(C)ccc21 | 5.58 |
| CN(Cc1cccnc1)C1CC2(CCN(C(=O)c3cscn3)CC2)C1 | 8.2 |

| SMILES | cytotoxicity at 70.5 h [%] |
| --- | --- |
| Cc1ccc(N2CCC3(CCN(Cc4csc(C)n4)CC3)CC2)nn1 | -6.42 |
| Cn1cccc1C(=O)N1CCCC2(CCCN2S(C)(=O)=O)C1 (centres undefined) | -8.52 |
| CC(=O)N1CC2(CCN(C(=O)CO)CC2)c2cc(C)ccc21 | -4.93 |
| CS(=O)(=O)N1C[C@@H]2CCN(C(=O)c3ccco3)[C@@H]2C1 | -2.6 |
| CS(=O)(=O)N1C[C@@H]2COC[C@@H](CC(=O)N3CCCCO3)[C@@H]2C1 | 5.89 |
| Cc1ccnc(OC[C@@]23CCO[C@@H]2CCN(S(C)(=O)=O)C3)n1 | -7.11 |
| CCOCC1CN(CCc2ccccc2)Cc2c1cnn2C (centres undefined) | 10.7 |
| O=C(Cc1ccccn1)N1CCC2(CCCN(CC3CCOCC3)C2)C1 (centres undefined) | -0.432 |
| Cc1ccc2c(c1)C1(CCN(S(C)(=O)=O)CC1)CN2C(=O)N(C)C | 4.29 |
| Cc1nc([C@@H]2C[C@H]3CN(Cc4scnc4C)C[C@H]3O2)no1 | 5.82 |
| Cc1nc(N2CCOCC2)nc2c1COCC21CCN(CC(C)C)C1 (centres undefined) | -5.39 |
| CCCS(=O)(=O)N1Cc2nccn2CC(Cn2cccn2)C1 (centres undefined) | -2.32 |
| CCOCC1CN(CCOCc2ccccc2)Cc2c1cnn2C (centres undefined) | -3.18 |
| O=C(C1CCOC1)N1C[C@H]2CN(c3ccccc3)C(=O)[C@H]2C1 (some centres undefined) | -4.87 |
| COc1nn(C)c2c1CCCN(S(=O)(=O)c1cccc(F)c1)C2 | -4.75 |
| c1ccc(NC[C@@H]2CCC[C@@H]3CN(Cc4csnn4)C[C@@H]32)nc1 | -5.27 |
| Cn1cnc(S(=O)(=O)N2CCO[C@H]3[C@@H](OCC4CC4)CC[C@@H]32)c1 | 11.1 |
| O=C(NC[C@H]1OC[C@@H]2CCN(c3ccccn3)C[C@@H]21)c1ccco1 | -1.04 |
| CCO[C@@H]1CC[C@H]2[C@H]1OCCN2S(=O)(=O)c1cn(C)cn1 | -1.5 |
| O=C1Nc2ccccc2CC12CCN(CCO)C2 (centres undefined) | -6.04 |
| O=C(c1c2c(N3CCCC3)ncnc2n2ccccc12)N1CCOCC1 | -5.97 |
| CS(=O)(=O)N1CCOCC12CCN(c1nncs1)CC2 | 5.03 |

| SMILES | cytotoxicity at 70.5 h [%] |
| --- | --- |
| O=C(c1cscn1)N1CC[C@@H]2[C@@H]1CCN2c1ccccn1 | -2.32 |
| O=C(Cn1nc(N2CCOCC2)ccc1=O)Nc1nccs1 | 15 |
| CCOC(=O)N1CCN(C(=O)c2snnc2-c2ccc(OC)cc2)CC1 | -11.6 |
| CCN1CCc2c(sc3c2C(=O)NC(/C=C/c2ccco2)N3)C1 (centres undefined) | 43.7 |
| O=C(c1cn(-c2ccccc2Cl)nn1)N1CCSCC1 | 15.4 |
| COc1cccc(CNC(=O)c2cccnc2N)c1 | 6.88 |
| Nc1ncccc1C(=O)NCc1ccc(Br)cc1 | -2.61 |
| Nc1ncccc1C(=O)NCc1cccc(Cl)c1 | -8.22 |
| O=c1[nH]nc2c(N3CCCCCC3)nccn12 | -8.09 |
| O=c1[nH]nc2c(N3CCOCC3)nccn12 | -11.6 |
| COc1ccccc1-c1ccnc2nc(N3CCCCC3)[nH]c(=O)c12 | -15.7 |
| COCCN1CCn2c(nc3cc(C(=O)NC(C)C)ccc32)C1 | -6.96 |
| O=C(O)CNC(=O)Cc1csc(-c2cccc(Cl)c2)n1 | 21.1 |
| CC(C)OCCCNC(=O)CN(c1ccc(F)c(F)c1)S(C)(=O)=O | -6.87 |
| CC(C)C[C@H](NC(=O)Cc1csc(-c2cccc(Cl)c2)n1)C(=O)O | 19.2 |
| C[C@H](NC(=O)Cc1csc(-c2cccc(Cl)c2)n1)C(=O)O | 19.3 |
| O=C(CC1Cn2ncnc2NC1=O)Nc1ccc(F)c(F)c1 (centres undefined) | -7.69 |
| CC(C)n1[nH]c(=O)c2c1NC(=O)CSC2c1cccc(OCC(N)=O)c1 (centres undefined) | -11.3 |
| CC(C)n1c(=O)c2sccc2n(CC(=O)Nc2cccc(Cl)c2)c1=O | -12.8 |
| O=C(CC1Cn2ncnc2NC1=O)Nc1cccc(C(F)(F)F)c1 (centres undefined) | -11.2 |
| CC1=Nc2c(c(O)nn2C(C)C)C(c2cnn(C)c2)S1 (centres undefined) | -11 |
| Cc1ccc(C)c(-c2[nH]c3ccccc3c2C(=O)O)c1 | -12.7 |

| SMILES | cytotoxicity at 70.5 h [%] |
| --- | --- |
| COc1ccc(C)cc1-c1[nH]c2ccccc2c1C(=O)O | -10.2 |
| Cn1c(=O)[nH]c(=O)n2c(CC(=O)Nc3ccc(Cl)c(Cl)c3)cnc12 | -12.5 |
| CCNC(=O)c1ccc2c(c1)nc1n2CCN(C(C)C)C1 | -9.53 |
| CC(=O)N1CCN(C(=O)c2sc(-c3ccccc3F)nc2C)CC1 | 16.5 |
| O=C1CC(c2ccsc2)c2sc(C(=O)O)c(-c3ccc(F)cc3)c2N1 (centres undefined) | -4.46 |
| O=C(CSC1CCc2ccccc2NC1=O)NC1CC1 (centres undefined) | -2.66 |
| O=C(Cn1ccc2c(Cl)cccc21)N1CCCC1 | -1.08 |
| O=C(CN1CCN(CC(O)C2CC2)CC1)NCc1ccccc1 (centres undefined) | -8.44 |
| OC(CN1CCN(Cc2ccccc2)CC1)C1CC1 (centres undefined) | -10.4 |
| CC(C)N1CC[C@@H]2[C@H](COCC3CC3)CN(C)C(=O)[C@@H]2CC1 | 4.19 |
| O=C(c1cnccn1)N1CC[C@@H]2CO[C@@H](CN3CCCC3)[C@@H]2C1 | -5.22 |
| Cc1noc(C)c1CNCC1COCc2c(-c3ccoc3)nnn2C1 (centres undefined) | -9.07 |
| CCc1ncnc2c1CCN(Cc1nccs1)CC2 | -7.4 |
| CN(C)c1ncnc2c1CCN(Cc1nccs1)CC2 | -6.81 |
| O=C(C[C@@H]1COC[C@H]2CN(C3CCCC3)C[C@@H]12)N1CCCCO1 | -0.83 |
| O=S(=O)(NC[C@]12COC[C@H]1CN(CCc1ccccc1)C2)C1CC1 | -2.87 |
| Cc1nc(N2CCCC2)nc2c1CCN(Cc1ccsc1)CC2 | 6.56 |
| CCN1C[C@@H]2[C@@H](OC)CCN(C(=O)c3cc(C)nn3CC)[C@@H]2C1 | 8.5 |
| CNC(=O)[C@H]1C[C@H]2OCC[C@H]2N(CCOc2ccc(Cl)cc2)C1 | -1.59 |
| c1ncn(Cc2cn3c(n2)CN(CC2CCCCC2)CC3)n1 | -3.74 |
| O=C(Cc1ccsc1)N1CCCC2(COCCN(CC3CC3)C2)C1 (centres undefined) | 1.23 |
| O=C1[C@H]2CN(CC3CCOCC3)C[C@H]2CN1Cc1cccc(F)c1 | 4.65 |

| SMILES | cytotoxicity at 70.5 h [%] |
| --- | --- |
| CCOCC(=O)N1CCC2(CC1)COC(COCc1ccccn1)C2 (centres undefined) | 4.72 |
| COCC(=O)N1CCC2(CC1)COC(COCc1ccccn1)C2 (centres undefined) | 1.98 |
| Cc1nc(N2CCOCC2)nc2c1CCN(Cc1ccsc1)CC2 | 1.35 |
| CCCS(=O)(=O)N1Cc2nccn2CC(CN(C)C)C1 (centres undefined) | -10.3 |
| Cc1noc([C@@H]2C[C@H]3CN(Cc4scnc4C)C[C@H]3O2)n1 | -4.75 |
| COc1cccc(C(=O)N2CC[C@@H]3[C@H](CC2)N(C)CCS3(=O)=O)c1 | -5.98 |
| Cc1nc(N2CCCC2)nc2c1CCN(Cc1ccoc1)CC2 | -6.88 |
| O=C(c1ccoc1)N1CCC2(CC1)COC(COc1ccccn1)C2 (centres undefined) | -4.94 |
| CN(C)C(=O)[C@@H]1C[C@H]2OCC[C@H]2N(CCOc2ccc(Cl)cc2)C1 | -4.26 |
| CCOCc1cnc2n1CCN(Cc1scnc1C)C2C (centres undefined) | -3.25 |
| CN(C)[C@@H]1CCN(C(=O)NC2CCCC2)[C@H]1Cc1ccncc1 | -9.4 |
| Cc1cccc(CN2C[C@H]3CCC[C@@]3(COCc3csc(C)n3)C2)n1 | -6.32 |
| Cc1cccc(N2CCC3(CCN(Cc4ccccn4)CC3)CC2)n1 | -9.07 |
| Cc1cccc(CN2CCc3c(COCC(=O)N(C)C)nn(C)c3C2)n1 | 0.676 |
| CN(C)Cc1cn2c(n1)CN(CC1CCCC1)CC2 | -6.79 |
| CC(C)(C)NC[C@@H]1CCC[C@@H]2CN(Cc3csnn3)C[C@@H]21 | -2.73 |
| Cc1cnc(N2CC[C@@H]3CN(Cc4ccncc4)CCO[C@@H]3C2)nc1 | 8.21 |
| c1ccc(N2CC[C@@H]3CN(Cc4ccncc4)CCO[C@@H]3C2)cc1 | -1.73 |
| Cc1ncsc1CN1CCn2c(COc3cccnc3)cnc2C1C (centres undefined) | -2.69 |
| CN(Cc1cccnc1)C[C@@H]1OC[C@H]2CN(Cc3ccoc3)CC[C@H]21 | -0.956 |
| Cc1cc(CN2C[C@@H](N3CCN(C)CC3)[C@H]3OCCC[C@H]32)oc1C | -4.18 |
